Source: patent publication US20210106579A1, “AMELIORATION OF COGNITIVE AND MOTOR DEFICITS ASSOCIATED WITH ALZHEIMER'S” (Neuralstem, Inc., priority 2018, published 2021)

How the values were obtained:
5XFAD mice [1] = assay: Barnes maze test (learning and memory retention) in Alzheimer's mouse model; assay type: in vivo; conditions: 30 mg/kg/day oral; for Memory retention (Barnes maze, retest after two days): 5XFAD mice
Procedure: (§1) A mouse model of Alzheimer's disease obtained from Jackson Laboratory was used in this study. […] Wild type control B6SJLF1/J mice were used. 5XFAD mice developed cognitive impairments at 4-5 months of age. Four groups of mice were employed, 15 mice per group, a wild type control administered vehicle; a wild type control administered NSI-189 as the phosphate salt administered orally at a level of 30 mg/kg per day and 5XFAD mice administered vehicle or administered NSI-189 as the phosphate salt orally also at 30 mg/kg/day (of the organic moiety). NSI-189 is of Formula 2 wherein R^1 is isoamyl. The treatment began at 15 weeks and was maintained for 12 weeks with measurements made after 6 weeks and 12 weeks.
The Barnes maze test is described in King, M. R., et al., J. Neurosc. Res. (supra). The Barnes maze consists of a brightly lit, circular, white platform with 20 holes with equidistant spacing around the periphery. An escape box is placed beneath one of the holes marked by a visual clue. Before testing begins, the mouse is placed in the center of the platform and allowed to explore until either it finds the escape box or five minutes has elapsed. The time to locate the escape box is then recorded at the end of the session, the mouse is left in, or placed in, the escape box for an additional minute.
This system is used to test both learning and memory. To test learning, the mouse was placed in the maze for five consecutive days to ascertain whether the time required to find the escape box was decreased, which would indicate learning. To test memory retention, a subsequent period of two days was allowed to elapse and the mouse was retested to ascertain whether a decreased time in finding the escape box was found.

5XFAD mice [2] = assay: Learning Rota-Rod test (motor skills and learning) in Alzheimer's mouse model; assay type: in vivo; conditions: 30 mg/kg/day oral
Procedure: as §1
The Rota-Rod test also is described in King, et al. (supra). Rota-Rod is marketed by Stoelting Company, Wood Dale, Ill. This is a rod that rotates accelerating from 4-40 rpm over five minutes and the amount of time spent on the rod before loss of balance is recorded over three trials. This measures both motor skills, and if conducted over a period of days, it measures learning.

5XFAD mice [3] = assay: Object recognition test (short term memory) in Alzheimer's mouse model; assay type: in vivo; conditions: 30 mg/kg/day oral, 6 weeks of treatment, FIG. 5
Procedure: as §1
The object recognition test is also described in King, M. R., et al. (supra). This is based on a concept that the mice will explore a novel object for a longer time than a familiar object. Two identical objects are placed equal distance from each other and from the side of a transparent box and mice are given 10 minutes to achieve 30 seconds of exploration of the two objects after which they are placed back in their home cage. […] The time that the mouse spends exploring the familiar and novel object is recorded and mice with normal cognitive function typically spend more time with a novel object.

5XFAD mice [4] = assay: Anxiety: time spent on the edge of an inverted beaker; assay type: in vivo, mouse; conditions: FIG. 8
Procedure: as §1
The time spent on the edge of an inverted beaker is used to assess anxiety, and the lower the time the more the anxious the mouse.

For CC(C)CCNc1ncccc1C(=O)N1CCN(Cc2ccccc2)CC1 [NSI-189], the “Learning (Barnes maze)” value (5XFAD mice [1]; 5XFAD mice (7 month old), 12 weeks of treatment, FIG. 3) was “amelioration of worsened learning deficit”, the “Memory retention (Barnes maze, retest after two days)” value (5XFAD mice [1]; 6 weeks of treatment, FIG. 2) was “improved memory” and the “Memory retention (Barnes maze, retest after two days)” value (5XFAD mice [1]; 12 weeks of treatment, FIG. 4) was “improvement of memory retention”. For the same compound, the “Learning (Barnes maze, time to find escape box over five consecutive days)” value (5XFAD mice [1]; control and 5XFAD mice, 6 weeks of treatment, FIG. 1) was “appeared not to affect the learning curve of either group”, the “Motor skill at the beginning and learning (time on Rota-Rod)” value (5XFAD mice [2]; 5XFAD mice, 6 weeks of treatment, FIG. 7) was “improves both the motor skill exhibited at the beginning and learning even over control” and the “Behavior of control mice” value (5XFAD mice [2]; wild type control mice, statement covers the behavioural tests) was “In no case did NSI-189 affect the behavior of control mice”. The “Recognition index (object recognition test)” value (5XFAD mice [3]) was “improved the recognition index of 5XFAD mice”, the “Anxiety (time spent on the edge of an inverted beaker)” value (5XFAD mice [4]; control and 5XFAD mice at 7 months (12 weeks of treatment)) was “partially reduced the anxiety in both” and the “Anxiety (time spent on the edge of an inverted beaker)” value (5XFAD mice [4]; control and 5XFAD mice at five months (6 weeks of treatment)) was “did not affect either group”.
